Conditions: [M+H]+; instrument: TW; Major Mix IMS/Tof Calibration Kit (Waters)

Row | Structure (SMILES) | collision cross section (N2) [Å²]
1 | CN1[C@@H]2CC[C@H]1C[C@@H](OC(=O)C(CO)c1ccccc1)C2 (stereo partly specified) [Atropine] | 171.5
2 | CCOC(=O)c1ccc(N)cc1 [Benzocaine] | 148.2
3 | CN1[C@H]2CC[C@@H]1[C@@H](C(=O)O)[C@@H](OC(=O)c1ccccc1)C2 [Benzoylecgonine] | 167.3
4 | CCCCN1CCCCC1C(=O)Nc1c(C)cccc1C (stereo unspecified) [Bupivacaine] | 173.1
5 | CC(NC(C)(C)C)C(=O)c1cccc(Cl)c1 (stereo unspecified) [Bupropion] | 157.8
6 | O=C1CC2(CCCC2)CC(=O)N1CCCCN1CCN(c2ncccn2)CC1 [Buspirone] | 199.3
7 | Cn1c(=O)c2c(ncn2C)n(C)c1=O [Caffeine] | 138.3
8 | C[C@H](CS)C(=O)N1CCC[C@H]1C(=O)O [Captopril] | 142.5
9 | NC(=O)N1c2ccccc2C=Cc2ccccc21 [Carbamazepine] | 150.3
10 | COc1ccccc1OCCNCC(O)COc1cccc2[nH]c3ccccc3c12 (stereo unspecified) [Carvedilol] | 190
11 | Cc1ccc(-c2cc(C(F)(F)F)nn2-c2ccc(S(N)(=O)=O)cc2)cc1 [Celecoxib] | 186.4
12 | OCCN1CCN(C(c2ccccc2)c2ccc(Cl)cc2)CC1 (stereo unspecified) [Cetirizine-M O-desalkyl] | 186.2
13 | CNC1=Nc2ccc(Cl)cc2C(c2ccccc2)=[N+]([O-])C1 [Chlordiazepoxide] | 170.4
14 | CN(C)CCC(c1ccc(Cl)cc1)c1ccccn1 (stereo unspecified) [Chlorphenamine] | 164.5
15 | CNCCCN1c2ccccc2Sc2ccc(Cl)cc21 [Chlorpromazine-M norl] | 168.7
16 | CNCC/C=C1/c2ccccc2Sc2ccc(Cl)cc21 [Chlorprothixene-M N-desmethyl] | 165.9
17 | CN/C(=N\C#N)NCCSCc1nc[nH]c1C [Cimetidine] | 156.5
18 | CN(C)CCCC1(c2ccc(F)cc2)OCc2cc(C#N)ccc21 (stereo unspecified) [Citalopram] | 180.1
19 | CC(C)(C)NCC(O)c1cc(Cl)c(N)c(Cl)c1 (stereo unspecified) [Clenbuterol] | 165.6
20 | O=C1CN=C(c2ccccc2Cl)c2cc([N+](=O)[O-])ccc2N1 [Clonazepam] | 168.2
21 | CN1CCN(C2=Nc3cc(Cl)ccc3Nc3ccccc32)CC1 [Clozapine] | 178.8
22 | CCOC(=O)[C@H]1[C@@H](OC(=O)c2ccccc2)C[C@@H]2CC[C@H]1N2C [Cocaine-M Cocaethylene] | 173.5
23 | CN1CCN(C(c2ccccc2)c2ccccc2)CC1 [Cyclizine] | 166.7
24 | CN(C)CCC=C1c2ccccc2C=Cc2ccccc21 [Cyclobenzaprine] | 164.7
25 | COc1ccc2c(c1)[C@]13CCCC[C@@H]1[C@H](C2)N(C)CC3 [Dextromethorphan] | 166.3
26 | CCC(=O)O[C@](Cc1ccccc1)(c1ccccc1)[C@H](C)CN(C)C [Dextropropoxyphene] | 180.7

Row | Structure (SMILES) | collision cross section (N2) [Å²]
27 | O=C(O)Cc1ccccc1Nc1c(Cl)cccc1Cl [Diclofenac] | 157.7
28 | CN1CC[C@]23c4c5ccc(O)c4O[C@H]2[C@@H](O)CC[C@H]3[C@H]1C5 [Dihydromorphine] | 163.6
29 | COc1ccc([C@@H]2Sc3ccccc3N(CCN(C)C)C(=O)[C@@H]2O)cc1 [Diltiazem-M deacetyl] | 186.3
30 | CNC(=O)CSP(=S)(OC)OC [Dimethoate] | 139.9
31 | OCCN(CCO)c1nc(N2CCCCC2)c2nc(N(CCO)CCO)nc(N3CCCCC3)c2n1 [Dipyridamole] | 227.5
32 | CC(CN1CCN(CCOCCO)CC1)CN1c2ccccc2Sc2ccccc21 (stereo unspecified) [Dixyrazine] | 201
33 | COc1cc2c(cc1OC)C(=O)C(CC1CCN(Cc3ccccc3)CC1)C2 (stereo unspecified) [Donepezil] | 198.1
34 | CN(C)CCC=C1c2ccccc2CSc2ccccc21 [Dosulepin] | 167.3
35 | COc1cc2nc(N3CCN(C(=O)C4COc5ccccc5O4)CC3)nc(N)c2cc1OC (stereo unspecified) [Doxazosin] | 202.9
36 | CN(C)CCOC(C)(c1ccccc1)c1ccccn1 (stereo unspecified) [Doxylamine] | 161.9
37 | COC(=O)[C@@H]1CC2=CC(=O)CC[C@]2(C)[C@@]23O[C@@H]2C[C@@]2(C)[C@@H](CC[C@@]24CCC(=O)O4)[C@H]13 [Eplerenone] | 197.6
38 | CCNC(C)C(=O)c1ccccc1 (stereo unspecified) [Ethcathinone] | 139.2
39 | Fc1ccc(C(c2ccc(F)cc2)N2CCN(C/C=C/c3ccccc3)CC2)cc1 [Flunarizine] | 211.5
40 | CN1C(=O)CN=C(c2ccccc2F)c2cc(N)ccc21 [Flunitrazepam-M 7-amino] | 163.1
41 | CN1C(=O)CN=C(c2ccccc2F)c2cc([N+](=O)[O-])ccc21 [Flunitrazepam] | 168.6
42 | FC(F)(F)c1ccc2c(c1)C(=CCCN1CCNCC1)c1ccccc1S2 [Flupentixol-M N-desalkyl] | 186
43 | O=S1c2ccccc2/C(=C\CCN2CCN(CCO)CC2)c2cc(C(F)(F)F)ccc21 (stereo unspecified) [Flupentixol-M sulphoxide] | 196.8
44 | OCCN1CCN(CC/C=C2\c3ccccc3Sc3ccc(C(F)(F)F)cc32)CC1 [Flupentixol] | 199.4
45 | CCN(CC)CCN1C(=O)CN=C(c2ccccc2F)c2cc(Cl)ccc21 [Flurazepam] | 185.3
46 | COc1ccc(Cl)cc1C(=O)NCCc1ccc(S(=O)(=O)NC(=O)NC2CCCCC2)cc1 [Glyburide] | 204.7
47 | CN1CC[C@]23c4c5ccc(O)c4O[C@H]2C(=O)CC[C@H]3[C@H]1C5 [Hydromorphone] | 163.9
48 | CCN(CCO)CCCC(C)Nc1ccnc2cc(Cl)ccc12 (stereo unspecified) [Hydroxychloroquine] | 180.2
49 | CNCCCN1c2ccccc2CCc2ccccc21 [Imipramine-M Nor] | 163.3
50 | Cc1cc(C(=O)NNCc2ccccc2)no1 [Isocarboxazid] | 152.1
51 | CCC(=O)C1(c2cccc(O)c2)CCN(C)CC1 [Ketobemidone] | 159.7
52 | CC(CCc1ccccc1)NCC(O)c1ccc(O)c(C(N)=O)c1 (stereo unspecified) [Labetalol] | 178.1

Row | Structure (SMILES) | collision cross section (N2) [Å²]
53 | Nc1nnc(-c2cccc(Cl)c2Cl)c(N)n1 [Lamotrigine] | 151.2
54 | COC(=O)C1=C(C)NC(C)=C(C(=O)OC(C)(C)CN(C)CCC(c2ccccc2)c2ccccc2)C1c1cccc([N+](=O)[O-])c1 (stereo unspecified) [Lercanidipine] | 249.8
55 | CNC[C@@H](C)CN1c2ccccc2S(=O)c2ccc(OC)cc21 (stereo partly specified) [Levomepromazine-M N-desmethyl sulfoxide] | 172.9
56 | CN1CC[C@]23CCCC[C@H]2[C@H]1Cc1ccc(O)cc13 [Levorphanol] | 161.7
57 | NC(=O)C(CCN1CCC(O)(c2ccc(Cl)cc2)CC1)(c1ccccc1)c1ccccc1 [Loperamid-M didesmethyl] | 211.9
58 | CN1CCN(C2=Nc3ccccc3Oc3ccc(Cl)cc32)CC1 [Loxapine] | 175.7
59 | CNCCCC1(C2=CC=CC=C32)CC[C@H]3C4=CC=CC=C14 [Maprotiline] | 164.2
60 | COc1ccc2[nH]cc(CCNC(C)=O)c2c1 [Melatonin] | 153.4
61 | CC1CCN(CCCC(=O)c2ccc(F)cc2)CC1 [Melperone] | 163.5
62 | C[C@]12C[C@@H]3C[C@](C)(C1)C[C@@](N)(C3)C2 [Memantine] | 146.6
63 | CNC(C)C(=O)c1ccc(C)cc1 (stereo unspecified) [Mephedrone] | 143.1
64 | Cc1cccc(C)c1NC(=O)C1CCCCN1C (stereo unspecified) [Mepivacaine] | 159.1
65 | CN(Cc1cnc2nc(N)nc(N)c2n1)c1ccc(C(=O)N[C@@H](CCC(=O)O)C(=O)O)cc1 [Methotrexate] | 196.2
66 | CNC(C)C(=O)c1ccc2c(c1)OCO2 (stereo unspecified) [Methylone] | 147.3
67 | C[C@]12CCC(=O)C=C1CC[C@@H]1[C@@H]2CC[C@@]2(C)[C@H]1CC[C@]2(C)O [Methyltestosterone] | 176
68 | COCCc1ccc(OCC(O)CNC(C)C)cc1 (stereo unspecified) [Metoprolol] | 172.7
69 | O=C(NCCN1CCOCC1)c1ccc(Cl)cc1 [Moclobemide] | 162.5
70 | CC(C)(O)c1ccccc1CC[C@@H](SCC1(CC(=O)O)CC1)c1cccc(/C=C/c2ccc3ccc(Cl)cc3n2)c1 [Montelukast] | 243
71 | CCN(CC)[C@@H](C)[C@H](O)c1ccccc1 [N-diethylnorephedrine] | 144.6
72 | CC(C)(C)NCC(O)COc1cccc2c1C[C@H](O)[C@H](O)C2 (stereo partly specified) [Nadolol] | 172
73 | O=C1CC[C@@]2(O)[C@H]3Cc4ccc(O)c5c4[C@@]2(CCN3CC2CC2)[C@H]1O5 [Naltrexone] | 176.5
74 | c1ccc2c(CC3=NCCN3)cccc2c1 [Naphazoline] | 149.6
75 | CNS(=O)(=O)CCc1ccc2[nH]cc(C3CCN(C)CC3)c2c1 [Naratriptan] | 174.3
76 | COC(=O)C1=C(C)NC(C)=C(C(=O)OCCN(C)Cc2ccccc2)C1c1cccc([N+](=O)[O-])c1 (stereo unspecified) [Nicardipine] | 212.1

From the C3SDB collision cross section collection
